The values that follow are results of earlier work, collected in patent US6090854A, “Aryloxyanilides and related compounds” (Bristol-Meyers Company, priority 1999, dated 2000).

For one data set, the system named is circadian rhythms. The following applies: exogenous melatonin, rats; Cassone et al. 1986.

As to `COc1ccc2[nH]cc(CCNC(C)=O)c2c1` [melatonin, N-acetyl-5-methoxytryptamine], the oral bioavailability result was “often low and variable”. For the same molecule, the “synchronization of circadian rhythms” value in the data set with circadian rhythms is “found to synchronize circadian rhythms in rats”.
